# Assay results published in US20230077983A1, “METHODS OF TREATING AND PREVENTING ENGRAFTMENT ARRHYTHMIAS” (UNIVERSITY OF WASHINGTON, priority 2020, published 2023).
# Read-outs that look alike come from different tables or passages of the source. Marks after values point to notes of the source that are not given here.
# Assays:
# [1] = system: engraftment arrhythmia (EA); conditions: for Result: HR effect / Result: cardioversion / Result: response on EA burden: Table 1, swine; for Effect: HR effect / Effect: cardioversion / Effect: response on EA burden: Table 2, Phase 1; for effect on heart rate (agent alone) / effect on rhythm: cardioversion / sinus rhythm / arrhythmia burden (agent alone): running text and figure legend, pigs in EA
# Experimental: A number of anti-arrhythmic therapies were tested to determine their efficacy in treating and preventing engraftment arrhythmias.
# The objective of this study was to identify a pharmacological regimen to attenuate arrhythmias following cardiac remuscularization therapy. This study was designed in two phases: the first, to observe the natural history of EA and screen various antiarrhythmic agents for efficacy and the second, test for efficacy (FIG. 16). All subjects were 30-40 kg castrated male Yucatan minipigs between 6-13 months of age (S&S Farms). In Phase 1, nine subjects underwent cardiac remuscularization therapy with 500×10^6 hESC-CM delivered by direct surgical transepicardial injections or later, by percutaneous transendocardial injections. The first four subjects (one non-infarcted and three infarcted) were followed to learn the natural history of EA and establish clinical endpoints and parameters for the Phase 2 drug trial. The subsequent five subjects underwent systematic dosing with antiarrhythmic agents with continuous electrocardiography (ECG) monitoring to determine effect on rhythm and rate (Table 2).
# In addition, the funny current/HCN4 channel antagonist, ivabradine, was tested (Tables 1 and 2). This series was not meant to be definitive but rather to rapidly identify candidate agents. Animals were brought into the laboratory while in EA, anesthetized, and the effects of short-term intravenous infusion of anti-arrhythmic agents were studied.
# Subjects were administered multiple trials antiarrhythmics and observed for acute response by continuous ECG monitoring. Intravenous agents were delivered as a bolus dose over 2 minutes. Oral agents were administrated by direct observation in a minimum of apples, apple sauce or pumpkin puree with daily feeding and dosed daily for dose escalation. A washout period of at least three days was provided between agents. Amiodarone was administered as the last agent for testing given concern for prolonged half-life and elimination kinetics. All agents were tested in at least two subjects.
# [2] = Amiodarone drug monitoring by liquid chromatography-mass spectrometry after discontinuation of oral therapy; format: in vivo, pigs; conditions: within 1 week of discontinuation of chronic oral amiodarone; pig
# Experimental: Amiodarone levels were measured in plasma by a liquid chromatography-mass spectrometry assay. Chronic oral amiodarone in six pigs was discontinued after achieving electrical maturation and stabilization of engraftment arrythmia. Serum concentrations of amiodarone were assayed weekly, including 3-4 weeks after discontinuation.
# A novel liquid chromatography—mass spectrometry assay was established for amiodarone to monitor steady state serum levels in the porcine model and guide oral dosing to ensure efficacy and avoid dose-related toxicity. A target serum level of 1.5-4.0 μg/ml was extrapolated from prior human pharmacokinetic studies (16,17). Elimination kinetics after discontinuation of oral amiodarone therapy were also studied by obtaining weekly trough concentrations in 6 pigs (subjects 6, 7, 8, 13, 14, 16) (FIG. 18).
# [3] = system: engraftment arrhythmia (EA); assay: Antiarrhythmic trial in non-human primate engraftment model; format: in vivo; conditions: Table 1, concentration not given
Structure (SMILES),Result: HR effect [1],Effect: HR effect ([1]; pig),Result: response on EA burden [1],effect in the antiarrhythmic screen (heart rate or arrhythmia burden) [1],Effect: response on EA burden ([1]; pig),also measured
CCCCc1oc2ccccc2c1C(=O)c1cc(I)c(OCCN(CC)CC)c(I)c1 [Amiodarone],Modest HR effect,Modest HR effect,–,–,–,Result: cardioversion [1]: frequent; Effect: cardioversion ([1]; pig): frequent; effect on heart rate (agent alone) [1]: moderate effect on reducing heart rate; effect on rhythm: cardioversion / sinus rhythm / arrhythmia burden (agent alone) [1]: effective as an intravenous bolus to cardiovert; Average serum amiodarone [2]: 0.42 ± 0.12 µg/mL
O=C1CN(/N=C/c2ccc(-c3ccc([N+](=O)[O-])cc3)o2)C(O)=N1 [Dantrolene],No response on HR or EA burden,–,No response on HR or EA burden,–,–,–
O=C(NCC1CCCCN1)c1cc(OCC(F)(F)F)ccc1OCC(F)(F)F (centres unmarked) [Flecainide],No response on HR or EA burden,No response on HR or EA burden,No response on HR or EA burden,no significant effect,No response on HR or EA burden,–
COc1cc2c(cc1OC)CC(=O)N(CCCN(C)C[C@H]1Cc3cc(OC)c(OC)cc31)CC2 [Ivabradine],Robust dose-dependent HR,Robust dose-dependent HR effect (PO,–,–,"only)**, no response on EA burden","Effect: adverse events (footnotes * and **) ([1]; pig, in vivo): **Severe bradycardia; effect on heart rate (agent alone) ([1]; listed as ivabradine): robust dose-dependent effects on heart rate; effect on rhythm: cardioversion / sinus rhythm / arrhythmia burden (agent alone) ([1]; listed as ivabradine): did not restore sinus rhythm"
CCN(CC)CC(=O)Nc1c(C)cccc1C [Lidocaine],Modest HR effect,Modest HR effect,–,no significant effect,–,Result: cardioversion [1]: rare; Effect: cardioversion ([1]; pig): rare
COCCc1ccc(OCC(O)CNC(C)C)cc1 (centres unmarked) [Metoprolol],Moderate HR effect (IV only),Moderate HR effect (IV only),no,no significant effect,no,–
CCCNCC(O)COc1ccccc1C(=O)CCc1ccccc1 (centres unmarked) [Propafenone],–,–,–,–,–,"Effect: adverse events (footnotes * and **) ([1]; pig, in vivo): *Severe nausea/emesis observed at therapeutic doses, limiting clinical utility; Result: adverse events (* remarks) ([1]; pig, in vivo): * Dose limited emesis"
CC(C)NCC(O)c1ccc(NS(C)(=O)=O)cc1 (centres unmarked) [Sotalol],No response on HR or EA burden,No response on HR or EA burden,No response on HR or EA burden,no significant effect,No response on HR or EA burden,–
COc1ccc(CCN(C)CCCC(C#N)(c2ccc(OC)c(OC)c2)C(C)C)cc1OC (centres unmarked) [Verapamil],–,–,–,–,–,Result [3]: Sudden cardiac death
